Test results as given in PubChem BioAssay (NCI).
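Exposure lasted 48 hours, with cells grown in 96-well plates and compounds tested at five concentrations. GI50: concentration for 50% inhibition of growth. TGI denotes the concentration required for complete inhibition of growth.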

Legend:
Experiment in all cases: NCI anticancer screen, dose series, 48 h
SK-OV-3 ovarian = tested on: SK-OV-3 ovarian
786-0 renal = tested on: 786-0 renal
OVCAR-5 ovarian = tested on: OVCAR-5 ovarian
MCF7 breast = tested on: MCF7 breast
RPMI-8226 leukemia = tested on: RPMI-8226 leukemia
DU-145 prostate = tested on: DU-145 prostate
T-47D breast = tested on: T-47D breast
SK-MEL-2 melanoma = tested on: SK-MEL-2 melanoma
MDA-MB-435 = tested on: MDA-MB-435
NCI-H522 lung = tested on: NCI-H522 lung
LOX IMVI melanoma = tested on: LOX IMVI melanoma
CAKI-1 renal = tested on: CAKI-1 renal
CCRF-CEM leukemia = tested on: CCRF-CEM leukemia
OVCAR-3 ovarian = tested on: OVCAR-3 ovarian
SK-MEL-5 melanoma = tested on: SK-MEL-5 melanoma
HOP-92 NSCLC = tested on: HOP-92 NSCLC
UO-31 renal = tested on: UO-31 renal
NCI-H226 lung = tested on: NCI-H226 lung
NCI-H460 lung = tested on: NCI-H460 lung
SN12C renal = tested on: SN12C renal
HOP-62 NSCLC = tested on: HOP-62 NSCLC
K-562 leukemia = tested on: K-562 leukemia
NCI/ADR-RES ovarian = tested on: NCI/ADR-RES ovarian
UACC-62 melanoma = tested on: UACC-62 melanoma
OVCAR-4 ovarian = tested on: OVCAR-4 ovarian
MOLT-4 leukemia = tested on: MOLT-4 leukemia
NCI-H23 lung = tested on: NCI-H23 lung
HS 578T breast = tested on: HS 578T breast
HL-60(TB) leukemia = tested on: HL-60(TB) leukemia

With `O=C(NC1CCCCC1)OCc1c(COC(=O)NC2CCCCC2)c(-c2ccc(Cl)c(Cl)c2)n2c1CCC2` the TGI (SK-OV-3 ovarian) was 11.8 µM, the GI50 (786-0 renal) was 3.26 µM and the TGI (786-0 renal) was 10.7 µM. For the same compound, the GI50 (OVCAR-5 ovarian) was 5.19 µM, the TGI (OVCAR-5 ovarian) was 44.3 µM and the GI50 (MCF7 breast) was 3.83 µM. It also gave a TGI (MCF7 breast) of 27.9 µM, a GI50 (RPMI-8226 leukemia) of 4.55 µM and a TGI (RPMI-8226 leukemia) of 29 µM. For the same compound, the GI50 (DU-145 prostate) was 3.72 µM, the TGI (DU-145 prostate) was 20.9 µM and the GI50 (T-47D breast) was 3.83 µM. It also gave a TGI (T-47D breast) of 19.5 µM, a GI50 (SK-MEL-2 melanoma) of 3.72 µM and a TGI (SK-MEL-2 melanoma) of 12.7 µM. The GI50 (MDA-MB-435) was 8.23 µM, the TGI (MDA-MB-435) was 28.8 µM and the GI50 (NCI-H522 lung) was 3.01 µM. For the same compound, the TGI (NCI-H522 lung) was 11.8 µM, the GI50 (LOX IMVI melanoma) was 2.98 µM and the TGI (LOX IMVI melanoma) was 16.4 µM. For the same compound, the GI50 (CAKI-1 renal) was 2.35 µM, the TGI (CAKI-1 renal) was greater than 100 µM and the GI50 (CCRF-CEM leukemia) was 3.21 µM. It also gave a TGI (CCRF-CEM leukemia) greater than 100 µM, a GI50 (OVCAR-3 ovarian) of 5.32 µM and a TGI (OVCAR-3 ovarian) of 22.3 µM. For the same compound, the GI50 (SK-MEL-5 melanoma) was 7.06 µM, the TGI (SK-MEL-5 melanoma) was 20.8 µM and the GI50 (HOP-92 NSCLC) was 1.94 µM. The TGI (HOP-92 NSCLC) was 12.5 µM, the GI50 (UO-31 renal) was 3.17 µM and the TGI (UO-31 renal) was 16.2 µM. For the same compound, the GI50 (NCI-H226 lung) was 2.51 µM, the TGI (NCI-H226 lung) was 22.4 µM and the GI50 (NCI-H460 lung) was 1.19 µM. It also gave a TGI (NCI-H460 lung) of 14.1 µM, a GI50 (SN12C renal) of 3.58 µM and a TGI (SN12C renal) greater than 100 µM. It also gave a GI50 (HOP-62 NSCLC) of 4.57 µM, a TGI (HOP-62 NSCLC) of 21 µM and a GI50 (K-562 leukemia) of 4.83 µM. For the same compound, the TGI (K-562 leukemia) was greater than 100 µM, the GI50 (NCI/ADR-RES ovarian) was 4.24 µM and the TGI (NCI/ADR-RES ovarian) was 18.6 µM. For the same compound, the GI50 (UACC-62 melanoma) was 2.37 µM, the TGI (UACC-62 melanoma) was 12.9 µM and the GI50 (OVCAR-4 ovarian) was 3.42 µM. The TGI (OVCAR-4 ovarian) was 62.9 µM, the GI50 (MOLT-4 leukemia) was 2.6 µM and the TGI (MOLT-4 leukemia) was greater than 100 µM. For the same compound, the GI50 (NCI-H23 lung) was 4.35 µM, the TGI (NCI-H23 lung) was 21 µM and the GI50 (HS 578T breast) was 3.72 µM. The TGI (HS 578T breast) was 21.4 µM, the GI50 (HL-60(TB) leukemia) was 2.24 µM and the TGI (HL-60(TB) leukemia) was greater than 100 µM.
